What was measured:
[1] = target: native, unphosphorylated β-catenin (UniProt P35222); test: cell-based or functional assay
PC3 cells [2] = test: PC3 cell proliferation with Tet-inducible IBS or DKK3 constructs; type: cell-based; details: limited antibiotic induction of Tet-inducible construct
From the text: The relationship between IBS and the Wnt/β-catenin signaling pathway was defined by cell proliferation, promoter-driven reporter assays, and cell migration analysis. Limited antibiotic induction of Tet-inducible IBS or DKK3 constructs was used to avoid the untoward effects of over-expression. […] (Veeck et al. 2012 Biochim Biophys Acta 1825, 18-28; Hsieh et al. 2004 Oncogene 23, 9183-9189; Abarzua et al 2005 Cancer Res 65, 9617-9622; Edamura et al. 2007 Cancer Gene Ther 14, 765-772.)

[3] = tested on: human ovarian, pancreatic, and colon cancers; test: Tumor growth in tumor bearing PDX-mice; type: in vivo, mouse
From the text: (§1) Delivery of this intracellular tumor suppressor to the cytoplasm of the cancer cell is essential to achieve the cancer cell growth arrest and apoptosis. First attempts were made by fusing a variant of the cell penetrating peptide-TAT.

[4] = in vivo
From the text: as §1

PC3 cells [5] = test: PC3 cell proliferation after TAT-fusion protein/peptide; type: cell-based
Protocol: (§2) Over-expression of DKK3 in cancer cells initiates c-Jun Kinase (JNK) mediated apoptosis. (Abarzua et al. 2005 Cancer Res 65, 9617-9622; Kawasaki et al. 2009 Cancer Gene Ther 16, 65-72.) IBS and the JNK inhibitor, TAT-JBD were introduced into PC3 cells as TAT-fusion protein and peptide, respectively, and cell proliferation was measured after 3 days. […] Pro-apoptotic levels of cleaved Caspase 3 increased in TAT-IBS treated cells and this increase was blocked by inhibition of JNK activity (FIG. 8d). […] (Veeck et al. 2012 Biochim Biophys Acta 1825, 18-28; Abarzua et al. 2005 Cancer Res 65, 9617-9622.)

Cleaved Caspase 3 = Cleaved Caspase 3 in PC3 cells; type: cell-based
Protocol: as §2

HEK293 cells = test: Basal and Wnt stimulated proliferation of HEK293 cells; type: cell-based; details: HEK293, highest concentration tested
From the text: The impact of IBS on basal and Wnt stimulated cell proliferation was then examined in immortalized HEK293 cells (FIG. 9a). […] The more robust silencing by TAT-IBS is likely due to the universal delivery of this regulator to the cell monolayer.

β-catenin = test: Tcf-luciferase promoter reporter assay; type: cell-based; details: Wnt1 co-transfected cells, treated 24 h
Protocol: Primary and downstream promoter-luciferase reporter assays were used to explore the interaction between IBS and β-catenin-driven gene expression. Cells were co-transfected with Wntl and promoter-driven luciferase constructs and treated with TAT-IBS for 24 h. […] The ability of IBS to modulate two downstream β-catenin modulated pathways that reduce cell adhesion (ECad) and promote cell cycle progression (E2F) was also examined. […] Motile MDA-MB-231 cells were used to examine the effect of IBS on β-catenin dependent cell migration. IBS slowed malignant cell migration by >60% (FIG. 9d).

NF-κB (p65) = test: NF-κB (p65)-responsive promoter luciferase reporter in HEK293 cells; type: cell-based; details: HEK293 cells stimulated by Wnt-1 transfection
From the text: (§3) FIG. 23. TAT-IBS antagonizes primary and secondary β-catenin and NF-κB-dependent gene expression. A) TAT-IBS blocks an NF-κB (p65)-responsive promoter driving luciferase reporter in HEK293 cells that was stimulated by Wnt-1 transfection (shaded bars). […] C) (Data previously disclosed in UMMC 12-40PR2). TAT-IBS restores E-Cadherin (CDH1)-promoter activity in Wnt-1 stimulated cells (middle chart). TopFlash and E2F-luciferase reporters are dependent on β-TrCP substrates, β-catenin and E2F, respectively (top and bottom charts). TAT-IBS blocks transcriptional activation by Wnt-1 stimulation of both reporters. DKK3b fused to an N-terminal cell penetrating peptide, a protein construct we refer to as TAT-IBS (a.k.a. cpIBS), regulates the activity of promoter elements that depend upon the nuclear translocation of β-TrCP target substrates (FIG. 23) as determined by promoter-luciferase reporter assays. Wnt-1 stimulates transcription regulated by NF-κB (FIG. 23A), β-catenin, and E2F (FIG. 23 C) transcription factor proteins. TAT-IBS treatment blocks this Wnt-1-induced stimulation. In contrast, Wnt-1 down-regulates transcription from promoter elements of two biomarkers of epithelial cellular differentiation, E-cadherin (FIG. 23C) and Elf3 (FIG. 23B). TAT-IBS treatment blocks Wnt-1-induced repression of these two epithelial gene transcripts.

Elf3 = test: Elf3-luciferase reporter assay; type: cell-based; details: suppressed by Wnt-1 stimulation
From the text: as §3

UniProt P35222, sequence (P35222 2-781 limits assumed): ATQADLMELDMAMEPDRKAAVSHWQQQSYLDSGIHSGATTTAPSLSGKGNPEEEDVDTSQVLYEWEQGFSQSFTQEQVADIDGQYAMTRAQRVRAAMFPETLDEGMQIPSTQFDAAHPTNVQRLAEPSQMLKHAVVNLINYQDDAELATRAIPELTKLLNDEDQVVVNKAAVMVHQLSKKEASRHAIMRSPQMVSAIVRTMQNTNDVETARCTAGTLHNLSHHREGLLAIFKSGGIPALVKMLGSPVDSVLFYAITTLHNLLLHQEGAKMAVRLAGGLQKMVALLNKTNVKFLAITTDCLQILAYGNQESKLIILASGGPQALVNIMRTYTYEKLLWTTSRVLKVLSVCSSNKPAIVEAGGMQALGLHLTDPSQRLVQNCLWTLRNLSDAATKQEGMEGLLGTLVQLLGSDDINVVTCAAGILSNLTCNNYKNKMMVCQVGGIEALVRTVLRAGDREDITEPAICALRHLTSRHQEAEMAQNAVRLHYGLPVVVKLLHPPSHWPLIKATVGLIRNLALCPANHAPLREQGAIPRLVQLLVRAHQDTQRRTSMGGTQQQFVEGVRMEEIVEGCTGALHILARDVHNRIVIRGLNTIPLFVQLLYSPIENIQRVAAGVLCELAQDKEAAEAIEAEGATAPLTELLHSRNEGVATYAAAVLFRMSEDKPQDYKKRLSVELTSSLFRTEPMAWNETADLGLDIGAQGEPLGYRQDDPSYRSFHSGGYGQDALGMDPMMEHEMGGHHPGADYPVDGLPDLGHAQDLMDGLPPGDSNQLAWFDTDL

“TAT-IBS (DKK3b fused to an N-terminal cell penetrating peptide) (from UniProt Q9UBP4 72-350)” gave a nuclear β-catenin level in LiCl-stimulated SOAS-2 and HeLa cells (cell fractionation) (fraction of untreated controls) [1] of 0.33 and a total cell content and distribution of β-catenin (nuclear, cytosolic and microfilament fractions) [1] of 3 fold.

For “DKK3: secreted glycoprotein product of the DKK3 locus”, the PC3 cell proliferation (PC3 cells [2]) was “did not alter the rate of PC3 cell proliferation”.

With “TAT-IBS: DKK3b fused to an N-terminal cell penetrating peptide; bacterially expressed, unfolded fusion protein” the tumor necrosis ([3]; pancreatic, and colon cancers in PDX-mice) was “led to tumor necrosis”, the “growth of human cancers in PDX-mice” value ([3]; pancreatic, and colon cancers, bacterially expressed, unfolded protein) was “arrested growth” and the “effects on biology in the mouse” value [4] was “no effects on any biology in the mouse”. The “loss of the initial cell population” value (PC3 cells [5]; PC3 cells, after 3 days) was over 75%, the PC3 cell proliferation (PC3 cells [5]; TAT-fusion protein, measured after 3 days) was “arrested proliferation” and the “pro-apoptotic levels of cleaved Caspase 3” value (Cleaved Caspase 3) was “increased”. The Wnt-stimulated cell proliferation (HEK293 cells) was “completely eliminated”, the basal cell proliferation (HEK293 cells) was “without altering basal cell proliferation” and the “Wnt stimulated Tcf-luciferase expression” value (β-catenin) was “completely arrested”. For the same substance, the “NF-κB (p65)-responsive promoter luciferase reporter” value (NF-κB (p65)) was “blocks” and the “transcriptional activity of Elf3-luciferase” value (Elf3) was “restores transcriptional activity”.
